Results taken from ChEMBL document CHEMBL1131394, “Design and synthesis of N-alkylated saccharins as selective alpha-1a adrenergic receptor antagonists” (Bioorg Med Chem Lett, 1998).

Columns and labels:
[1] = biological target: T1, Alpha adrenergic receptor (1a and 1d) (Homo sapiens) (UniProt P35348+P25100); test: Selectivity towards Alpha-1A over alpha-1d receptor; 56x; assay type: protein assay
[2] = biological target: T2, Adrenergic receptors; alpha-1 A & B (Homo sapiens) (UniProt P35348+P35368); test: Selectivity towards Alpha-1A over alpha-1b receptor; 11x; assay type: protein assay
Canis familiaris [3] = test: In vivo inhibitory activity against […]-induced increase in diastolic blood pressure (DBP) in dog; assay type: functional, Canis lupus familiaris, Artery
Canis familiaris [4] = test: In vivo inhibitory activity against […]-induced increase in urethral pressure (IUP) in dog; assay type: functional, Canis lupus familiaris, Urethra
[5] = biological target: T3, Alpha-1A adrenergic receptor (Homo sapiens, UniProt P35348); test: Ability to displace beta ([125I]-iodo-4-hydroxyphenyl)-ethylaminomethyl tetralone from human cloned Alpha-1a adrenergic receptor stably expressed in COS-7 cells; assay type: cell-based
T3 sequence (P35348 whole entry): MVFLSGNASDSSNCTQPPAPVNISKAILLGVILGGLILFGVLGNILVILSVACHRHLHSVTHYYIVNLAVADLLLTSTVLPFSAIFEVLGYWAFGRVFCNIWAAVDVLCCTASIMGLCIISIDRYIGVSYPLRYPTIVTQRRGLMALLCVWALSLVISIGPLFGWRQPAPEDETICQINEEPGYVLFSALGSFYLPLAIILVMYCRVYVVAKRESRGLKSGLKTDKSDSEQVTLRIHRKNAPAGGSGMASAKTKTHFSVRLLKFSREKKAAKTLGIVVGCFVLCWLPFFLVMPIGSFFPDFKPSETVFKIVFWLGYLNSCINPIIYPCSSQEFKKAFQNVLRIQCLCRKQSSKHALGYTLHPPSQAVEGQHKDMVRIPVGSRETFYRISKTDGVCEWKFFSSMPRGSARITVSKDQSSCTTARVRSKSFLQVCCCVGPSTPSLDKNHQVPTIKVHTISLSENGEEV

[6] = biological target: T4, Alpha-1D adrenergic receptor (Homo sapiens, UniProt P25100); test: Ability to displace beta ([125I]-iodo-4-hydroxyphenyl)-ethylamino methyl tetralone from human cloned Alpha-1d adrenergic receptor stably expressed in COS-7 cells; assay type: cell-based
T4 sequence (P25100 whole entry): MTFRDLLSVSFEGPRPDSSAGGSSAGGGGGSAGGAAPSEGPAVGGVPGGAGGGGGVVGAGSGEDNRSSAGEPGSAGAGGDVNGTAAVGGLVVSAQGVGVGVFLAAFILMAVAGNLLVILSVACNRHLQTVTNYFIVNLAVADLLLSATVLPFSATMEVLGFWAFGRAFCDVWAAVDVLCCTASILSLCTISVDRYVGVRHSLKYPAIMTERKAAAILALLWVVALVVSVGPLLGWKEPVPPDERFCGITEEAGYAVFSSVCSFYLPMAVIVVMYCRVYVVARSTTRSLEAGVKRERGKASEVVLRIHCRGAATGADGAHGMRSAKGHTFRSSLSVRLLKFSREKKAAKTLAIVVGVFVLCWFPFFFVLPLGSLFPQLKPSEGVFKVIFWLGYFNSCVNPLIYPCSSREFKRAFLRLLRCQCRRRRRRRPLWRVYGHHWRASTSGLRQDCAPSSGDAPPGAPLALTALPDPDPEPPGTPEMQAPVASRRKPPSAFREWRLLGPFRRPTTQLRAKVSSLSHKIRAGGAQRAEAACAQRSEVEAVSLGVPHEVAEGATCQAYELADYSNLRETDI

[7] = biological target: T5, Alpha-1B adrenergic receptor (Homo sapiens, UniProt P35368); test: Ability to displace beta ([125I]-iodo-4-hydroxyphenyl)-ethylamino methyl tetralone from human cloned Alpha-1b adrenergic receptor stably expressed in COS-7 cells; assay type: cell-based
T5 sequence (P35368 whole entry): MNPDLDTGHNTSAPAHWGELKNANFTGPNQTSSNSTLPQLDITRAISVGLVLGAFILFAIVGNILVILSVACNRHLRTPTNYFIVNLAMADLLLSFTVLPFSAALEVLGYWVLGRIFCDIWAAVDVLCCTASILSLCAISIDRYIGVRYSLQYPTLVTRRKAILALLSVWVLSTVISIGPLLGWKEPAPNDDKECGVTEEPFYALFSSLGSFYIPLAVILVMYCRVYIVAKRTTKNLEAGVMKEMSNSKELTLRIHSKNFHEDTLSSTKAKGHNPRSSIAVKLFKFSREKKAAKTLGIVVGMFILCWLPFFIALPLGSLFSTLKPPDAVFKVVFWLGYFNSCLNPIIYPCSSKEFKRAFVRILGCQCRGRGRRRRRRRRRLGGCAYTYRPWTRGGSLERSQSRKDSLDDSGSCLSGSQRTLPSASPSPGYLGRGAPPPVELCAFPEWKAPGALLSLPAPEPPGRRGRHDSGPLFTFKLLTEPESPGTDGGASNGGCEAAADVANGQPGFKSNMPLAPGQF

[8] = biological target: T3, Alpha-1A adrenergic receptor; test: Ability to displace beta ([125I]-iodo-4-hydroxyphenyl)-ethylamino methyl tetralone from human cloned Alpha-1a adrenergic receptor stably expressed in Chinese Hamster Ovary (CHO) cells; assay type: cell-based
[9] = biological target: T5, Alpha-1B adrenergic receptor; test: Ability to displace beta ([125I]-iodo-4-hydroxyphenyl)-ethylamino methyl tetralone from human cloned Alpha-1b adrenergic receptor stably expressed in LM cells.; assay type: cell-based
[10] = biological target: T4, Alpha-1D adrenergic receptor; test: Ability to displace beta ([125I]-iodo-4-hydroxyphenyl) ethylamino methyl tetralone from human cloned Alpha-1d adrenergic receptor stably expressed in HEK cells.; assay type: cell-based, HEK293
[11] = biological target: T2, Adrenergic receptors; alpha-1 A & B (Homo sapiens); test: Selectivity towards Alpha-1A over alpha-1b receptor; 5x; assay type: protein assay
[12] = biological target: T1, Alpha adrenergic receptor (1a and 1d) (Homo sapiens); test: Selectivity towards Alpha-1A over alpha1d receptor; 11x; assay type: protein assay
[13] = biological target: T2, Adrenergic receptors; alpha-1 A & B (Homo sapiens); test: Selectivity towards alpha-1a over alpha-1b receptor; 97x; assay type: protein assay
[14] = biological target: T1, Alpha adrenergic receptor (1a and 1d) (Homo sapiens); test: Selectivity towards Alpha-1A over alpha1d receptor; 208x; assay type: protein assay
[15] = biological target: T3, Alpha-1A adrenergic receptor; test: Ability to displace beta ([125I]-iodo-4-hydroxyphenyl)-ethylaminomethyl tetralone from human cloned Alpha-1a adrenergic receptor stably expressed in CHO cells; assay type: cell-based
[16] = biological target: T2, Adrenergic receptors; alpha-1 A & B (Homo sapiens); test: Selectivity towards Alpha-1A over alpha-1b receptor; 3.3x; assay type: protein assay
[17] = biological target: T1, Alpha adrenergic receptor (1a and 1d) (Homo sapiens); test: Selectivity towards alpha-1a over alpha1d receptor; 5.5x; assay type: protein assay
[18] = biological target: T1, Alpha adrenergic receptor (1a and 1d) (Homo sapiens); test: Selectivity towards Alpha-1A over alpha-1d receptor; 266x; assay type: protein assay
[19] = biological target: T3, Alpha-1A adrenergic receptor; test: Ability to displace beta ([125I]-iodo-4-hydroxyphenyl)-ethylaminomethyl tetralone from human cloned Alpha-1a adrenergic receptor stably expressed in CHO cells
[20] = biological target: T2, Adrenergic receptors; alpha-1 A & B (Homo sapiens); test: Selectivity towards Alpha-1A over alpha-1b receptor; 188x; assay type: protein assay
[21] = biological target: T3, Alpha-1A adrenergic receptor; test: Ability to displace beta ([125I]-iodo-4-hydroxyphenyl)-ethylaminomethyl tetralone from human cloned Alpha-1a adrenergic receptor stably expressed in Chinese Hamster Ovary (CHO) cells; assay type: cell-based

Row | Ki [8] [nM] | Ki [9] [nM] | Ki [10] [nM] | SMILES | also measured
1 | – | – | – | O=C1c2ccccc2C(=O)N1CCCCN1CCC(n2c(O)nc3ccccc32)CC1 | Selectivity [1]: 56; Selectivity [2]: 11
2 | – | – | – | COc1cc2nc(N3CCN(C(=O)C4CCCO4)CC3)nc(N)c2cc1OC (stereo unspecified) [TERAZOSIN] | Kb (Canis familiaris [3]): 17 µg/kg; Kb (Canis familiaris [4]): 16 µg/kg
3 | – | – | – | CS(=O)(=O)c1ccc2c(c1)S(=O)(=O)N(CCCCN1CCC(n3c(=O)oc4ccccc43)CC1)C2=O | Ki [5]: 2.4 nM; Ki [6]: 210 nM; Ki [7]: 6.8 nM
4 | 1.2 | 37 | 136 | Cc1ccc2oc(=O)n(C3CCN(CCCCN4C(=O)c5ccccc5S4(=O)=O)CC3)c2c1 | –
5 | 20 | 108 | 224 | Cc1cc(C)c2oc(=O)n(C3CCN(CCCCN4C(=O)c5ccccc5S4(=O)=O)CC3)c2c1 | Selectivity [11]: 5; Selectivity [12]: 11
6 | 1030 | 1960 | 3430 | COC(=O)c1ccc2c(c1)oc(=O)n2C1CCN(CCCCN2C(=O)c3ccccc3S2(=O)=O)CC1 | –
7 | – | – | 85 | O=C1c2cc(Cl)ccc2S(=O)(=O)N1CCCCN1CCC(n2c(=O)oc3ccccc32)CC1 | Kb (Canis familiaris [3]): 156 µg/kg; Kb (Canis familiaris [4]): 5.5 µg/kg
8 | 3.1 | 301 | 644 | Cc1ccc2c(c1)oc(=O)n2C1CCN(CCCCN2C(=O)c3ccccc3S2(=O)=O)CC1 | Selectivity [13]: 97; Selectivity [14]: 208
9 | – | 10 | 59 | CSc1ccc2c(c1)C(=O)N(CCCCN1CCC(n3c(=O)oc4ccccc43)CC1)S2(=O)=O | Ki [15]: 0.057 nM
10 | 499 | 1650 | 2750 | COc1ccc2c(c1)oc(=O)n2C1CCN(CCCCN2C(=O)c3ccccc3S2(=O)=O)CC1 | Selectivity [16]: 3.3; Selectivity [17]: 5.5
11 | – | 50 | 71 | O=C1c2cc(F)ccc2S(=O)(=O)N1CCCCN1CCC(n2c(=O)oc3ccccc32)CC1 | Selectivity [18]: 266; Ki [19]: 0.27 nM; Selectivity [20]: 188
12 | 0.12 | 14 | 41 | O=C1c2ccccc2S(=O)(=O)N1CCCCN1CCC(n2c(=O)oc3ccccc32)CC1 | –
13 | 147 | 1150 | 1020 | Cc1cccc2oc(=O)n(C3CCN(CCCCN4C(=O)c5ccccc5S4(=O)=O)CC3)c12 | –
14 | – | 15 | 76 | COc1ccc2c(c1)C(=O)N(CCCCN1CCC(n3c(=O)oc4ccccc43)CC1)S2(=O)=O | Ki [21]: 0.064 nM
15 | 90 | 676 | 894 | O=C1c2ccccc2S(=O)(=O)N1CCCCN1CCC(n2c(=O)oc3cc4c(cc32)CCCC4)CC1 | –
16 | – | 75 | 75 | O=C1c2ccc([N+](=O)[O-])cc2S(=O)(=O)N1CCCCN1CCC(n2c(=O)oc3ccccc32)CC1 | Ki [15]: 0.16 nM
17 | – | 20 | 73 | Cc1ccc2c(c1)C(=O)N(CCCCN1CCC(n3c(=O)oc4ccccc43)CC1)S2(=O)=O | Ki [21]: 0.099 nM
18 | 0.13 | 133 | 351 | O=C1c2cc([N+](=O)[O-])ccc2S(=O)(=O)N1CCCCN1CCC(n2c(=O)oc3ccccc32)CC1 | –
19 | 0.084 | 7.3 | 25 | O=C1c2ccccc2S(=O)(=O)N1CCCCN1CCC(n2c(=O)oc3cc(F)ccc32)CC1 | –

Row | SMILES | Ki [8] [nM] | Ki [9] [nM] | Ki [10] [nM] | also measured
20 | O=C1c2ccccc2C(=O)N1CCCCN1CCC(n2c(=O)[nH]c3ccccc32)CC1 | 0.28 | 3 | 16 | –
